Laboratory results published in US8722687B2, “Imidazo [1,2-A]pyridine derivatives as FGFR kinase inhibitors for use in therapy” (Astex Therapeutics Ltd, priority 2009, dated 2014).

Experiments:
[1] = test system: human prostate cancer PC3 cells; assay: EB1 cellular assay (Eb1 Comet assay, microtubule disruption); format: cell-based; settings: PC-3, lowest active concentration: Eb1 foci absent in at least 50% of treated PC3 cells, 1 hour, read-out: Eb1 LAC
Description: The Eb1 Comet assay relies on the detection of the Eb1 protein at the plus end of polymerizing microtubules (Mimori-Kiyosue, 2000) using indirect immunofluorescence. Disruption of microtubule dynamics through de-polymerization or stabilization results in a de-localization of Eb1 from the growing microtubule ends and this is visualized by the disappearance of Eb1 containing cytoplasmic foci.
Briefly, human prostate cancer PC3 cells obtained from the American Type Culture Collection were grown in 96-well plates (Greiner, cat. no. 655090) in HAM's F12 medium as recommended by the provider (ATCC). The cells were treated for 1 hour at 37° C. with compounds dissolved in DMSO (0.6% final DMSO concentration). The culture medium was then removed by aspiration and the cells were fixed by adding cold methanol (−20° C.). After a 15 minutes incubation at −20° C., the cells were washed twice with DPBS (Gibco) containing 0.5% Triton X-100. Mouse Eb1 antibody (BD Transduction Laboratories, cat. no. 610534) was added to the cells (1/250 dilution in DPBS containing 1% BSA) and incubated overnight at room temperature. The antibody was subsequently removed and the cells washed twice with DPBS, 0.5% Triton X-100. Secondary goat anti-mouse antibody conjugated to Alexa 488 fluorescent dye (Molecular Probes) was added at a 1/500 dilution in DPBS, 1% BSA and incubated for 1 hour at 37° C. The cells were washed twice with DPBS, 0.5% Triton X-100 and then DPBS containing 0.5% Triton X-100 and 1/5000 Hoechst 33342 (Molecular Probes) was added. Microscopy based Eb1 foci visualization was carried out using an IN Cell Analyser 1000 (Amersham Biosciences) using a 20× objective. Compound dependent microtubule disruption was visually determined by the disappearance in Eb1 foci. The lowest active concentration (LAC) was determined as the concentration where Eb1 foci were absent in at least 50% of the treated cells. Herein the effects of test compounds are expressed as pLAC (the negative log value of the LAC-value)

Ba/F3-Flt3 cells = target: T1, Ba/F3-Flt3 cells (Homo sapiens, UniProt P36888, cells depend on it, form not given); assay: Ba/F3-Flt3 assay (Alamar Blue); format: cell-based, murine; settings: without IL3
T1 construct: Ba/F3-flt3 − IL3 pIC50; other: without IL3
T1 sequence (P36888 1-993): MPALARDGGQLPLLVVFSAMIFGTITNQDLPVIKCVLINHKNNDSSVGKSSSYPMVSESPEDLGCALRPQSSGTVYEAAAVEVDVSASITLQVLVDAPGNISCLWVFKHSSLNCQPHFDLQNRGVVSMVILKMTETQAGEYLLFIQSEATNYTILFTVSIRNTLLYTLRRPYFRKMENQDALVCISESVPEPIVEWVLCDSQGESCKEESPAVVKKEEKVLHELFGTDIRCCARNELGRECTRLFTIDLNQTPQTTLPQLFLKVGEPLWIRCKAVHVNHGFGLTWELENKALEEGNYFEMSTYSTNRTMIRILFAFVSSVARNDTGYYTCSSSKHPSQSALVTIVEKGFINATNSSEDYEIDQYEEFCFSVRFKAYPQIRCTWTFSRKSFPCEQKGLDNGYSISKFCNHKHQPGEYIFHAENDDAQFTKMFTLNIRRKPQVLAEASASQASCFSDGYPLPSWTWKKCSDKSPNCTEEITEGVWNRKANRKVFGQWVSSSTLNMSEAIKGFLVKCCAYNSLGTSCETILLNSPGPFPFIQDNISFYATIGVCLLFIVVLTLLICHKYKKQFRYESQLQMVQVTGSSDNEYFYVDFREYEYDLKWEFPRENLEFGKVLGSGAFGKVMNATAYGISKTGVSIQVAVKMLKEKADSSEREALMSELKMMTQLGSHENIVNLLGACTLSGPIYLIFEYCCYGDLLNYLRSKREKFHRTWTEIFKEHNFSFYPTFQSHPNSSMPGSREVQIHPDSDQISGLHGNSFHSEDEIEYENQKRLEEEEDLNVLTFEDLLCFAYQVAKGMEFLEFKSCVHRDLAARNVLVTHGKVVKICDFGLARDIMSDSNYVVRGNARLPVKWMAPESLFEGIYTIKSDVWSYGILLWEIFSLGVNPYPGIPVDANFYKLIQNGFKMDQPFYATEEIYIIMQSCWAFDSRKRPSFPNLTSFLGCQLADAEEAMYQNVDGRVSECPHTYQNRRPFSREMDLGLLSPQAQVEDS
Procedure, shortened: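 Ba/F3-Flt3 cells in phenol red-free RPMI-1640 with 10% FCS were plated, and compound dilutions were added 24 h later at 0.2% DMSO final. After 24 h at 37 °C, Alamar Blue was added for 4 h and fluorescence was read (ex 544/em 590 nm) to derive IC50. The IL3 condition added 10 ng/ml murine IL3 during compound exposure.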

Row | Ba/F3-flt3 − IL3 pIC50 (Ba/F3-Flt3 cells) | Compound | minimal effective concentration [1] [µM]
1 | <5 | CC(C)Oc1cc(NC(=O)NCC(F)(F)F)cc(-c2cnc3cc(N4CCC(F)(F)CC4)ccn23)c1 [Compound F-13, 1-{3-[7-(4,4-Difluoro-piperidin-1-yl)-imidazo[1,2-a]pyridin-3-yl]-5-isopropoxy-phenyl}-3-(2,2,2-trifluoro-ethyl)-urea] | 5
2 | <5 | Cc1nnc(-c2ccn3c(-c4cc(NC(=O)NCC(F)(F)F)cc(OC(C)C)c4)cnc3c2)o1 [Compound F-5, 1-{3-Isopropoxy-5-[7-(5-methyl-[1,3,4]oxadiazol-2-yl)-imidazo[1,2-a]pyridin-3-yl]-phenyl}-3-(2,2,2-trifluoro-ethyl)-urea] | > 10

Row | Compound | Ba/F3-flt3 − IL3 pIC50 (Ba/F3-Flt3 cells) | minimal effective concentration [1] [µM]
3 | Cc1nnc(-c2ccn3c(-c4cc(NC(=O)NCC(F)(F)F)cc(OC5CCC5)c4)cnc3c2)o1 [Compound F-11, 1-{3-Cyclobutoxy-5-[7-(5-methyl-[1,3,4]oxadiazol-2-yl)-imidazo[1,2-a]pyridin-3-yl]-phenyl}-3-(2,2,2-trifluoro-ethyl)-urea] | <5 | > 10
